For the data set, the system named is rodent carcinogenicity bioassays, tumor incidence. The data set can be described thus: CCRIS carcinogenicity studies. The method, boiled down: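 NCI-built, expert-reviewed records of carcinogenicity and related test outcomes (mutagenicity, tumor promotion/inhibition) compiled from published and report sources, historical span 1985-2011, not updated.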

Structures are written as SMILES. Activity calls are given as the source filed them. No rule for the calls is given here.

Take `Clc1cc(Cl)c(-c2cc(Cl)c(Cl)cc2Cl)cc1Cl`: the carcinogen call by setting is: (Species: RAT, Strain/Sex: SPRAGUE-DAWLEY/FEMALE, Route: ORAL, Dose: 0, 10, 100, 300, 1000, 3000 NG/KG/D (STUDY DURATION: 2 YRS), Dose: 0, 10, 100, 300, 1000, 3000 NG/KG/D (STUDY DURATION: 2 YRS)) “inactive; negative”; (Species: Rat, Strain/Sex: Harlan Sprague-Dawley/Female, Route: Gavage, Dose: 0, 3000 ug/kg in corn oil:acetone (99:1) 5 d/wk for 30 wk then vehicle for remainder of 2 yr study, Tumor Site: Type of Lesion: Liver: Cholangioma (0/53, 2/50)) “equivocal”; (Species: Rat, Strain/Sex: Harlan Sprague-Dawley/Female, Route: Gavage, Dose: 0, 10, 100, 300, 1000, 3000 ug/kg in corn oil:acetone (99:1) 5 d/wk for 2 yr, Dose: 0, 10, 100, 300, 1000, 3000 ug/kg in corn oil:acetone (99:1) 5 d/wk for 2 yr; Tumor Site: Type of Lesion: Liver: Cholangioma 0/53, 0/54, 0/53, 0/53, 2/53, 0/51)) “equivocal”.
For the molecule `C#C[C@]1(OC(C)=O)CC[C@H]2[C@@H]3CCC4=C[C@@H](OC(C)=O)CC[C@@H]4[C@H]3CC[C@@]21C`, the carcinogen call reads like this: (Species: MOUSE, Route: ORAL, Tumor Site: Type of Lesion: MAMMARY GLAND) “active; positive”; (Species: RAT, Route: ORAL, Tumor Site: Type of Lesion: MAMMARY GLAND) “active; positive”.
For the molecule `Nc1ccc(-c2ccc(F)cc2)cc1`, the carcinogen call by setting is: (Species: MOUSE, Strain/Sex: CBA/FEMALE, Route: GAVAGE, Dose: 0, 0.05 ML OF 1% IN ARACHIS OIL 2/WK FOR 6 MO FOR AN ESTIMATED TOTAL DOSE OF 0, 13 MG (STUDY DURATION: 119 WK), Dose: 0, 0.05 ML OF 1% IN ARACHIS OIL 2/WK FOR 6 MO FOR AN ESTIMATED TOTAL DOSE OF 0, 13 MG (STUDY DURATION: 119 WK), Tumor Site: Type of Lesion: LIVER: HEPATOMA) “active; positive”; (Species: MOUSE, Strain/Sex: CBA/MALE, Route: GAVAGE, Dose: 0, 0.05 ML OF 1% IN ARACHIS OIL 2/WK FOR 6 MO FOR AN ESTIMATED TOTAL DOSE OF 0, 13 MG (STUDY DURATION: 109 WK), Dose: 0, 0.05 ML OF 1% IN ARACHIS OIL 2/WK FOR 6 MO FOR AN ESTIMATED TOTAL DOSE OF 0, 13 MG (STUDY DURATION: 109 WK), Tumor Site: Type of Lesion: LIVER: HEPATOMA) “active; positive”.
Regarding `C=COc1ccc([N+](=O)[O-])cc1`, under “Species: MOUSE, Strain/Sex: B6C3F1/MALE, Route: INTRAPERITONEAL, Dose: 0, 60, 300 NMOL/G BW IN 10 µL TRIOCTANOIN ONCE (STUDY DURATION: 10 MO), Dose: 0, 60, 300 NMOL/G BW IN 10 µL TRIOCTANOIN ONCE (STUDY DURATION: 10 MO), Tumor Site: Type of Lesion: LIVER: HEPATOMA”, the carcinogen call is “active; positive”.
`C=C(C#N)C(=O)O`: under “Species: RAT, Strain/Sex: F344/FEMALE, Route: SUBCUTANEOUS IMPLANT, Dose: 0.12 G INJECTED INTO 2 SITES ON THE LATERAL ABDOMEN, 2 SITES ON THE LATERAL CHEST REGION AND 1 SITE ON THE BACK (STUDY D, Tumor Site: Type of Lesion: IMPLANT SITE: MALIGNANT HISTIOCYTOMA”, the carcinogen call was “active; positive”.
`Nc1ccc(-c2ccc(N)cc2)cc1`: the carcinogen call by setting is: (Species: DOG, Route: ORAL, Tumor Site: Type of Lesion: URINARY BLADDER) “active; positive”; (Species: HAMSTER, Route: ORAL, Tumor Site: Type of Lesion: LIVER) “active; positive”; (Species: HUMAN, Route: ORAL, INHALATION, DERMAL, Tumor Site: Type of Lesion: URINARY BLADDER) “active; positive”; (Species: MOUSE, Route: SUBCUTANEOUS, Tumor Site: Type of Lesion: LIVER) “active; positive”; (Species: RAT, Route: ORAL, Tumor Site: Type of Lesion: LIVER) “active; positive”; (Species: RAT, Route: SUBCUTANEOUS, Tumor Site: Type of Lesion: LIVER, EAR (ZYMBAL GLAND), INJECTION SITE, Tumor Site: Type of Lesion: LIVER, EAR (ZYMBAL GLAND), INJECTION SITE) “active; positive”. In addition, the carcinogen call (Species: RAT, Strain/Sex: STRAIN-CD/FEMALE, Route: INTRAPERITONEAL, Dose: 0, 10, 30 UMOL/KG IN TRIOCTANOIN 2/WK FOR 4 WK (TOTAL DOSES: 13.5, 40.1 UMOL) (STUDY DURATION: 46 WK), Dose: 0, 10, 30 UMOL/KG IN TRIOCTANOIN 2/WK FOR 4 WK (TOTAL DOSES: 13.5, 40.1 UMOL) (STUDY DURATION: 46 WK), Tumor Site: Type of Lesion: MAMMARY GLAND: FIBROADENOMA, ADENOCARCINOMA, EAR (ZYMBAL GLAND): ADENOMA OR CARCINOMA) is “active; positive”.
Regarding `Cl/C=C/CCl`, the carcinogen call is “active; positive” (Species: MOUSE, Strain/Sex: B6C3F1/FEMALE, Route: GAVAGE, Dose: 0, 50, 100 MG/KG BODY WT (TELONE II) IN CORN OIL 3 D/WK FOR 104 WK, Dose: 0, 50, 100 MG/KG BODY WT (TELONE II) IN CORN OIL 3 D/WK FOR 104 WK, Tumor Site: Type of Lesion: URINARY BLADDER: TRANSITIONAL CELL CARCINOMA, LUNG: ALVEOLAR/BRONCHIOLAR ADENOMA, ALVEOLAR/BRONCHIOLAR ADENOMA OR CARCIN); “inactive; negative” (Species: MOUSE, Strain/Sex: B6C3F1/FEMALE, Route: INHALATION, Dose: 0, 5, 20, 60 PPM TECHNICAL GRADE 6 HR/D 5 D/WK FOR 2 YR (STUDY DURATION: 2 YR), Dose: 0, 5, 20, 60 PPM TECHNICAL GRADE 6 HR/D 5 D/WK FOR 2 YR (STUDY DURATION: 2 YR)); “inactive; negative” (Species: MOUSE, Strain/Sex: B6C3F1/FEMALE, Route: ORAL, Dose: 0, 2.5, 25, 50 MG/KG BW IN DIET FOR 104 WK (STUDY DURATION: 104 WK), Dose: 0, 2.5, 25, 50 MG/KG BW IN DIET FOR 104 WK (STUDY DURATION: 104 WK)); “active; positive” (Species: MOUSE, Strain/Sex: B6C3F1/MALE, Route: INHALATION, Dose: 0, 5, 20, 60 PPM TECHNICAL GRADE 6 HR/D 5 D/WK FOR 2 YR (STUDY DURATION: 2 YR), Dose: 0, 5, 20, 60 PPM TECHNICAL GRADE 6 HR/D 5 D/WK FOR 2 YR (STUDY DURATION: 2 YR), Tumor Site: Type of Lesion: LUNG: BRONCHIOALVEOLAR ADENOMA); “inactive; negative” (Species: MOUSE, Strain/Sex: B6C3F1/MALE, Route: ORAL, Dose: 0, 2.5, 25, 50 MG/KG BW IN DIET FOR 104 WK (STUDY DURATION: 104 WK), Dose: 0, 2.5, 25, 50 MG/KG BW IN DIET FOR 104 WK (STUDY DURATION: 104 WK)); “active; positive” (Species: RAT, Strain/Sex: F344/FEMALE, Route: GAVAGE, Dose: 0, 25, 50 MG/KG BODY WT (TELONE II) IN CORN OIL 3 D/WK FOR 104 WK, Dose: 0, 25, 50 MG/KG BODY WT (TELONE II) IN CORN OIL 3 D/WK FOR 104 WK, Tumor Site: Type of Lesion: FORESTOMACH: SQUAMOUS CELL PAPILLOMA). For the same molecule, the carcinogen call is “inactive; negative” (Species: RAT, Strain/Sex: F344/FEMALE, Route: INHALATION, Dose: 0, 5, 20, 60 PPM TECHNICAL GRADE 6 HR/D 5 D/WK FOR 2 YR (STUDY DURATION: 2 YR), Dose: 0, 5, 20, 60 PPM TECHNICAL GRADE 6 HR/D 5 D/WK FOR 2 YR (STUDY DURATION: 2 YR)); “active; positive” (Species: RAT, Strain/Sex: F344/FEMALE, Route: ORAL, Dose: 0, 2.5, 12.5, 25 MG/KG BW IN DIET FOR 104 WK (STUDY DURATION: 104 WK), Dose: 0, 2.5, 12.5, 25 MG/KG BW IN DIET FOR 104 WK (STUDY DURATION: 104 WK), Tumor Site: Type of Lesion: LIVER: HEPATOCELLULAR ADENOMA); “active; positive” (Species: RAT, Strain/Sex: F344/MALE, Route: GAVAGE, Dose: 0, 25, 50 MG/KG BODY WT (TELONE II) IN CORN OIL 3 D/WK FOR 104 WK, Dose: 0, 25, 50 MG/KG BODY WT (TELONE II) IN CORN OIL 3 D/WK FOR 104 WK, Tumor Site: Type of Lesion: FORESTOMACH: SQUAMOUS CELL PAPILLOMA, SQUAMOUS CELL PAPILLOMA OR CARCINOMA, LIVER: NEOPLASTIC NODULE, NEOPLASTIC NODULE); “inactive; negative” (Species: RAT, Strain/Sex: F344/MALE, Route: INHALATION, Dose: 0, 5, 20, 60 PPM TECHNICAL GRADE 6 HR/D 5 D/WK FOR 2 YR (STUDY DURATION: 2 YR), Dose: 0, 5, 20, 60 PPM TECHNICAL GRADE 6 HR/D 5 D/WK FOR 2 YR (STUDY DURATION: 2 YR)); “active; positive” (Species: RAT, Strain/Sex: F344/MALE, Route: ORAL, Dose: 0, 2.5, 12.5, 25 MG/KG BW IN DIET FOR 104 WK (STUDY DURATION: 104 WK), Dose: 0, 2.5, 12.5, 25 MG/KG BW IN DIET FOR 104 WK (STUDY DURATION: 104 WK), Tumor Site: Type of Lesion: LIVER: HEPATOCELLULAR ADENOMA).

Values taken from PubChem BioAssay AID1259411 (Chemical Carcinogenesis Research Information System (CCRIS), 2018).
